This is an account of results in patent EP0610519B1, “ANTI-HIV DRUG” (priority 1992, dated 1994).

Each structure is given as a SMILES string. Where two headings read alike, the source gives them in different places.

The conditions of data set [1]: rat, in vivo.
The next data set relates to HIV (type IIIB). The data set can be described thus: inhibition of budding of HIV from infected H-9 cells (reverse transcriptase activity per unit culture medium as index). Type of data set: cell-based. As to conditions: H-9 cells infected with HIV (type IIIB), 15 minutes treatment, then 360 minutes culture. The procedure: (§1) Human lymphocyte-derived H-9 cells, infected with HIV (type IIIB), were cultured in an RPMI-1640 medium (product of Biocell Laboratories) containing wortmannin and 10% fetal bovine serum (FBS) at 37°C for 15 minutes in a CO2 incubator. The H-9 cells thus obtained were washed with an RPMI-1640 medium, and then cultured in another RPMI-1640 medium containing 10% FBS at 37°C for 360 minutes in a CO2 incubator. The reverse transcriptase activity per unit culture medium was used as an index to determine the inhibitory effect of wortmannin on the budding of HIV.
(§2) The same test as mentioned above was repeated using MS-444 instead of wortmannin.

The test system of data set [2] is Human lymphocyte-derived H-9 cells. As to the kind of experiment: host cell growth in the HIV budding test. As to conditions: concentration of 100 µM. How it is done:
as §1, §2

With `Cc1occ2c1C(=O)c1c(O)ccc(O)c1C2` [MS-444], the “acute toxicity, mortality” value was “no rats died” in data set [1] (ip, 100 mg/kg) and “no rats died” in data set [1] (po, 300 mg/kg). Also, the “Budding of HIV (%)” value in the data set on HIV (type IIIB) (10 µM test compound) was found to be 95%; with HIV (type IIIB) (100 µM test compound), 82%; with HIV (type IIIB) (1000 µM test compound), 20%.

Consider `COC[C@H]1OC(=O)c2coc3c2[C@@]1(C)C1=C(C3=O)[C@@H]2CCC(=O)[C@@]2(C)C[C@H]1OC(C)=O` [Wortmannin], for which the “Budding of HIV (%)” value came to 67% in the data set on HIV (type IIIB) (0.1 µM test compound), 49% in the data set with HIV (type IIIB) (1.0 µM test compound) and 39% in the data set on HIV (type IIIB) (10 µM test compound). In addition, in data set [2], the Host cell growth entry was “not influenced”.
